# Results from patent publication US11442059B2, “Method for treating a chronic itch condition by administering small molecule MrgprX4 antagonists” (The Johns Hopkins University, priority 2017, dated 2022).
# Values joined by “and” are separate entries in the source; they are usually repeats but may differ in a detail not shown here. Identical values can stand only once. Non-standard residues stand in square brackets, D forms with d. No end group written: not given here. *: point of attachment. Boc = CC(C)(C)OC(=O)*; OBn = c1ccc(CO*)cc1; For = O=C*
# T1: MrgprA1 (Mus musculus, UniProt Q91WW5)
# T1 construct: expressed in transfected cells; whole cells or crude membrane fraction
# T1 sequence (Q91WW5 1-304): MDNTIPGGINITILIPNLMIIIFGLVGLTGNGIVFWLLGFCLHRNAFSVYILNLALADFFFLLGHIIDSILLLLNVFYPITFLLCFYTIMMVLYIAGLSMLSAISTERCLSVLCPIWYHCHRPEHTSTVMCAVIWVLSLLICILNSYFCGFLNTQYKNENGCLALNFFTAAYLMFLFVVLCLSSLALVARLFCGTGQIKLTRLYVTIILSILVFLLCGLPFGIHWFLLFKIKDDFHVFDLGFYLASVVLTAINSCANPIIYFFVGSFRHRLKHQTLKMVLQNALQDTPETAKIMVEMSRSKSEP
# T2: MrgprA6 (Mus musculus, UniProt Q91ZC6)
# T2 construct: expressed in transfected cells; host or cells: HEK293 (transient, pcDNA3.1)
# T2 sequence (Q91ZC6 1-301): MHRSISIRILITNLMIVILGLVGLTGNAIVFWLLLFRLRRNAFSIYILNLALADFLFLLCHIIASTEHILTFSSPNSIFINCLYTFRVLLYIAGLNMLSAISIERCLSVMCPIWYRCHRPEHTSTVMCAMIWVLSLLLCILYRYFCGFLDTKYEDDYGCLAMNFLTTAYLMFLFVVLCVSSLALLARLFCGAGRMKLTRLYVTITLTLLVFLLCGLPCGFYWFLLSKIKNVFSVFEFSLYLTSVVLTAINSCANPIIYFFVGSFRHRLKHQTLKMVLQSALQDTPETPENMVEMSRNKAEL
# T3: murine MRGPRA1 stably expressed in HEK293 cells (GFP-tagged, pEGFP-N1) (mouse, UniProt Q91WW5 1-304)
# T3 sequence (looked up): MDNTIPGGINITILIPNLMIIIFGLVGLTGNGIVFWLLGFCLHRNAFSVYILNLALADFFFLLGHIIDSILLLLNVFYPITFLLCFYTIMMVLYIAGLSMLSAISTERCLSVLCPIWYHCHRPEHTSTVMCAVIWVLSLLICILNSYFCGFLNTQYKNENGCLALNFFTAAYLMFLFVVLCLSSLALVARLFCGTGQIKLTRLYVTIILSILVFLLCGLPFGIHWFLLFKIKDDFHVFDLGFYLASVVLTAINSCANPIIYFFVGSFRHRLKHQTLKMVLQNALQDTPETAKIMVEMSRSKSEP
# What was measured:
# [1] = target: T1, MrgprA1; assay: Fura 2-AM calcium imaging, EC50 and IC50 determinations, MRGPRA1 HEK293 cells; assay type: cell-based; details: for activation of MRGPRA1-expressing cells (calcium): concentration-Ca2+ response, FIG. 24D
# Description: (§1) Cells were imaged in calcium imaging buffer (CIB; 10 mM HEPES, 1.2 mM NaHCO3, 130 mM NaCl, 3 mM KCl, 2.5 mM CaCl2, 0.6 mM MgCl2, 20 mM glucose, and 20 mM sucrose at pH 7.4 and 290-300 mOsm). To monitor changes in intracellular [Ca^2+] ([Ca^2+]i), cells were loaded with either Fura 2-AM (HEK293 cells) or Fluo 4-AM (DRG neurons and mast cells) for 30 min in the dark at 37° C. in CIB just prior to imaging. With Fura 2-AM, emission at 510 nm was monitored from excitation at both 340 nm and 380 nm. With Fluo 4-AM, emission at 520 nm was monitored from excitation at 488 nm. Cells were identified as responding if the intracellular [Ca^2+] rose by either 50% compared to baseline or 50% compared to the [Ca^2+]i change assayed during addition of 50 mM KCl (neurons only). Damaged, detached, high-baseline, and motion-activated cells were excluded from analysis.
# (§2) In initial screens, HEK293 cells stably expressing the murine G-protein alpha-subunit Gα15, a unique Gα protein that non-selectively couples a large variety of GPCRs to phospholipase C^30, were plated on poly-D-lysine-coated coverslips and transiently transfected with constructs encoding the MRGRPR of interest. 12-24 h later, cells were loaded with the Fura 2-AM. Unless otherwise specified, compounds were perfused into the imaging chamber for approximately thirty seconds after a baseline period was established. Response was then monitored at 5 s intervals for an additional 60 s.
# (§3) HEK293 cells stably expressing either MRGPRA1, MRGPRX4, and MRGRPC11 were seeded in poly-D-lysine-coated 96-well plates at 10,000 cells/well. Cells were loaded with Fura 2-AM, washed twice, and maintained in CIB. Haem metabolites were freshly dissolved in DMSO in dim light and then diluted into a buffer comprised of 20 mM Tris and 150 mM NaCl at pH 8.8. Potential changes in pH were evaluated prior to each experiment. EC50 values were determined from dose-responses performed in triplicate, repeated 2-4 times. To determine potential antagonism by QWF against bilirubin, cells were treated with varying doses of QWF for 1 min in CIB prior to application of agonist.
# [2] = target: T4, MRGPRX4 (Homo sapiens, UniProt Q96LA9); assay: Fura 2-AM calcium imaging, EC50 determinations, MRGPRX4 HEK293 cells; assay type: cell-based; design: expressed in transfected cells; whole cells or crude membrane fraction; details: for activation of MRGPRX4-expressing cells (calcium): concentration-Ca2+ response, FIG. 24I
# Description: as §1, §2
# as §3, with “To determine potential antagonism by QWF against bilirubin, cells were treated with varying doses of QWF for 1 min in CIB prior to application of agonist.” left out
# [3] = target: T4, MRGPRX4; assay: Microscale thermophoresis binding assay, MRGPRX4; design: expressed in transfected cells; whole cells or crude membrane fraction; details: for binding to MRGPRX4: FIG. 24J
# Description: (§4) Binding isotherms for MRGPRA1, MRGPRX4, and MRGRPC11 towards various ligands were determined by microscale thermophoresis with the NanoTemper monolith NT.115 instrument^27. Ligands were pre-incubated with 10 μM of the GFP-tagged receptor of interest for 5 minutes at room temperature in binding buffer (20 mM Tris and 150 mM NaCl at pH 8.8). Receptors were crudely purified as a membrane fraction from cells stably expressing the receptor^45. Haem metabolites were freshly dissolved in 0.1 M NaOH in dim light and then diluted into assay buffer. Lyophilized BAMS-22 was dissolved in binding buffer. The pH of each ligand was evaluated prior to incubation with a receptor. Samples were loaded into NT.115 Hydrophobic-Treated Capillaries from NanoTemper. Microscale thermophoretic experiments were executed using 20% LED power and 15% MST power. KDs were calculated using the law of mass action with data from three independent experiments. Binding between bilirubin and receptors was evaluated purely thermophoretically, whereas binding between BAMS-22 and MRGPRC11 was evaluated by T-Jump. Samples with dramatic deviations in initial fluorescence were excluded.
# [4] = target: T1, MrgprA1; assay: Microscale thermophoresis binding assay, MRGPRA1; details: for binding to MRGPRA1: FIG. 24E
# Description: as §4
# [5] = target: T1, MrgprA1; assay: FLIPR calcium assay (Flexstation3), HEK cells stably expressing MrgprA1; assay type: cell-based
# Description: (§5) EC50s were calculated using HEK cells stably expressing either MrgprA1 or MrgprX4. Cells were loaded with FLIPR calcium imaging dye, and a Flexstation3 machine (Molecular Devices) was used for reading changes in fluorescence. Wells were run in triplicate, and all values from each plate were normalized to the highest responding well. […] The x-axis depicts a modified logarithmic scale. […] FIG. 18B is a graph depicting the EC50 for MrgprX4 for bilirubin is approximately 3 μM.
# [6] = system: DRG neurons; assay: Calcium imaging of dissociated DRG neurons; assay type: cell-based, mouse; details: Venn diagram FIG. 30A; Overlap=13
# [7] = target: T4, MRGPRX4; assay: FLIPR calcium assay (Flexstation3), HEK cells stably expressing MrgprX4; assay type: cell-based; design: expressed in transfected cells; whole cells or crude membrane fraction; details: FLIPR calcium dye, FIG. 18B
# Description: as §5
# [8] = system: mice; assay: Acute itch behaviour after injection (scratching bouts); assay type: in vivo, mouse
# [9] = target: T5, MRGPRX3 (Homo sapiens, UniProt Q96LB0); assay: Ca2+ response of HEK cells expressing MRGPRX3; assay type: cell-based
# T5 construct: expressed in transfected cells; host or cells: HEK cells
# [10] = system: human keratinocytes; assay: Ca2+ response of primary human keratinocytes; assay type: cell-based
# [11] = system: MrgprA1, A4, A12, B3, and B6; assay: Ca2+ response of cells expressing other keratinocyte Mrgprs; assay type: cell-based, mouse
# [12] = target: T2, MrgprA6; assay: Ca2+ response of cells expressing mouse MrgprA6; assay type: cell-based
# [13] = target: human MRGPRX3 (Mas-related G-protein coupled receptor member X3) (human) (UniProt Q96LB0); assay: cell-based or functional assay
# [14] = target: T3, murine MRGPRA1 stably expressed in …; assay: cell-based or functional assay
# [15] = 10 μM pre-incubated 30 minutes, 50 μM bilirubin
# T4 sequence (Q96LA9 whole entry): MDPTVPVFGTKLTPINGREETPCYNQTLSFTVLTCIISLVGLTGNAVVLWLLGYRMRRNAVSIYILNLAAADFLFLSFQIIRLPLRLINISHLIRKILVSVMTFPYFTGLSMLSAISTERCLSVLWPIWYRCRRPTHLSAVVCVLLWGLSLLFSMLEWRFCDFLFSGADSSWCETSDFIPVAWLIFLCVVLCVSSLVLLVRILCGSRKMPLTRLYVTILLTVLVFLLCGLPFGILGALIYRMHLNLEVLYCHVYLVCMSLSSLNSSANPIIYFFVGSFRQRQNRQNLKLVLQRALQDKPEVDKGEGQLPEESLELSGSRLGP
# Chain of human MRGPRX3 (Mas-related G-protein coupled receptor member X3) (human) (Q96LB0 whole entry): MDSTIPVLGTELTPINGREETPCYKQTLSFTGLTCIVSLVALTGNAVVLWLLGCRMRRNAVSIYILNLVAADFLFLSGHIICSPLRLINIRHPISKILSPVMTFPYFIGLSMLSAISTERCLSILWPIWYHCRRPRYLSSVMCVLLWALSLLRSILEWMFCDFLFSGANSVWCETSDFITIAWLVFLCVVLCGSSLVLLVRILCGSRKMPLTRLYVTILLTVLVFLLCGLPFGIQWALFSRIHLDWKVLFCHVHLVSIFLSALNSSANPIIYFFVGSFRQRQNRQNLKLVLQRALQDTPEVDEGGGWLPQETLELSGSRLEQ
# T5 sequence (Q96LB0 whole entry): as above
molecule,measurement,setting,value
"C=CC1=C(C)/C(=C/c2[nH]c(Cc3[nH]c(/C=C4\NC(=O)C(C)=C4C=C)c(C)c3CCC(=O)NCCS(=O)(=O)O)c(CCC(=O)NCCS(=O)(=O)O)c2C)NC1=O [Conjugated bilirubin, bilirubin ditaurate]",activation of MRGPRA1-expressing cells (calcium),[1],activated
same,activation of MRGPRX4-expressing cells (calcium),[2],activated
same,binding to MRGPRX4,[3],lower affinities compared to bilirubin
same,binding to MRGPRA1,[4],lower affinities compared to bilirubin
COc1ccc2c(c1)CC[C@@H]1[C@@H]2CC[C@]2(C)[C@@H](NCCCCCCN3C(=O)C=CC3=O)CC[C@@H]12 [U73122],"effect on bilirubin-induced calcium responses, MRGPRA1",[1]; [15],abolished
same,effect on bilirubin calcium influx,"[5]; MrgprA1 HEK cells, FIG. 17B",blocked the calcium influx
same,"effect on bilirubin-induced calcium responses, MRGPRX4",[2]; [15],inhibited
"C=CC1=C(C)/C(=C/c2[nH]c(Cc3[nH]c(/C=C4\NC(=O)C(C)=C4C=C)c(C)c3CCC(=O)O)c(CCC(=O)O)c2C)NC1=O [bilirubin, bilirubin IXa]",EC50,"[1]; HEK293 cells, Fura 2-AM, interval [96, 220], read-out: EC50 calcium response MRGPRA1",146 µM
same,EC50,"[5]; HEK cells, FLIPR calcium dye, FIG. 18A",~49 µM
same,EC50,"[2]; HEK293 cells, Fura 2-AM, interval [44, 87], read-out: EC50 calcium response MRGPRX4",61.9 µM
same,total neurons activated by the compound alone,[6],7
same,Kd,[3],54.4 ± 13 µM
same,EC50,[7],~3 µM and 2 µM
same,scratching of Cluster−/− animals less than wild type,[8]; bilirubin injection,approximately 75%
same,Kd,[4],92.9 ± 15 µM
C=CC1=C(C)c2cc3[n-]c(cc4nc(cc5[n-]c(cc1n2)c(C)c5C=C)C(C)=C4CCC(=O)O)c(CCC(=O)O)c3C.[Cl-].[Fe+3] [haemin],activation of MRGPRA1-expressing cells (calcium),[1],failed to activate
same,activation of MRGPRX4-expressing cells (calcium),[2],no effect
same,binding to MRGPRX4,[3],did not bind
same,scratching / itch elicited by injection,[8]; WT mice,did not induce scratching
same,binding to MRGPRA1,[4],did not bind
"hBD3: synthetic human Beta-defensin 3, antimicrobial peptide (GIINTLQKYYCRVRGGRCAVLSCLPKEEQIGKCSTRGRKCCRRKK; ends and bridges not checked; cysteine pairing not given here)",Ca2+ response of MRGPRX3 HEK cells,[9],robust Ca^2+ response
same,percentage of keratinocytes that responded,[10]; primary human keratinocytes after MRGPRX3 siRNA knock down,< 20%
same,percentage of keratinocytes that responded,"[10]; primary human keratinocytes, control",> 80%
"mBD14: mouse Beta-Defensin-14, mouse homologue of hBD3 (FLPKTLRKFFCRIRGGRCAVLNCLGKEEQIGRCSNSGRKCCRKKK; ends and bridges not checked; cysteine pairing not given here)","response of MrgprA1, A4, A12, B3, and B6",[11],did not show any response
same,activation of MrgprA6,[12],strongly activated
synthetic human Beta-defensin 3 (hBD3) (from UniProt P81534 23-67) (peptide),"percentage of primary human keratinocytes that responded to hBD3 (Ca^2+), after siRNA knock-down of MRGPRX3",[13],< 20%
same,"percentage of primary human keratinocytes that responded to hBD3 (Ca^2+), before MRGPRX3 knock-down",[13],> 80%
Boc-Gln-[dW](For)-Phe-OBn [BOC-GLN-D-(FORMYL)TRP-PHE-BENZYLESTER (QWF)],IC50 for inhibition of bilirubin-induced Ca^2+ signal in MRGPRA1-expressing HEK cells (200 µM bilirubin),[14],2.9 µM
